We go through one compound from patent US20160296529A1, “AMINOTRIAZOLOPYRIDINE FOR USE IN THE TREATMENT OF INFLAMMATION, AND PHARMACEUTICAL COMPOSITIONS THEREOF” (priority 2012, published 2016).

By IC50 is commonly meant the point on the concentration scale where inhibition reaches its midpoint. Higher therefore signals a need for much substance.

The subject of this experiment is IL-2-induced STAT5 phosphorylation (JAK1/JAK3 pathway). As to the kind of experiment: Human whole blood assay (hWBA), IL-2 stimulation, phospho-STAT5 on CD4+ cells. It is filed as cell-based. Particulars: 5 different donors. How it is done:
A flow cytometry analysis was performed to establish JAK1 over JAK2 compound selectivity ex vivo using human whole blood. Therefore, blood is taken from human volunteers who gave informed consent. Blood is then equilibrated for 30 min at 37° C. under gentle rocking, then aliquoted in Eppendorf tubes. Compound is added at different concentrations and incubated at 37° C. for 30 min under gentle rocking and subsequently stimulated for 20 min at 37° C. under gentle rocking with interleukin 6 (IL-6) for JAK1-dependent pathway stimulation, Interferon alpha (IFNα) for JAK1/TYK2 pathway stimulation, interleukin 2 (IL-2) for JAK1/JAK3 pathway stimulation or GM-CSF for JAK2-dependent pathway stimulation. Phospho-STAT1 (for IL-6- and IFNα-stimulated cells) and phospho-STAT5 (for IL-2- and GM-CSF-stimulated cells) levels are then evaluated using FACS analysis. […]
Cells were then washed once with 1×PBS and analyzed on a FACSCanto II flow cytometer (BD Biosciences).
50,000 total events were counted and Phospho-STAT1 positive cells were measured after gating on CD4+ cells, in the lymphocyte gate for IL-6- and IFNα-stimulated cells. Phospho-STAT5 positive cells were measured after gating on CD4+ cells, in the lymphocyte gate for IL-2-stimulated cells. Phospho-STAT5 positive cells were measured after gating on CD33+ cells. […]

As to `Nc1nc2cccc(-c3ccc(CN4CCS(=O)(=O)CC4)cc3)n2n1` [Formula I, 5-[4-(1,1-Dioxothiomorpholin-4-ylmethyl)-phenyl]-[1,2,4]triazolo[1,5-a]pyridin-2-ylamine], 19.6 µM corresponded to half-maximal inhibition (IC50).
